The numbers were not newly measured in patent US20170369926A1, “NEW MARKERS FOR EARLY DIAGNOSIS OF OVARIAN CANCER, MONITORING DURING THERAPY, AND NEW THERAPY OPTIONS DURING AND AFTER CHEMOTHERAPY” (Bioventures, LLC, priority 2011, published 2017), which cites them from elsewhere.

Data set [1] has as its target plasma kallikrein (Homo sapiens, UniProt P03952). The conditions noted are these: from reference (15).
In data set [2] the target is hepsin (Homo sapiens, UniProt P05981). The conditions noted are these: literature statement.
Sequence of hepsin (P05981 whole entry): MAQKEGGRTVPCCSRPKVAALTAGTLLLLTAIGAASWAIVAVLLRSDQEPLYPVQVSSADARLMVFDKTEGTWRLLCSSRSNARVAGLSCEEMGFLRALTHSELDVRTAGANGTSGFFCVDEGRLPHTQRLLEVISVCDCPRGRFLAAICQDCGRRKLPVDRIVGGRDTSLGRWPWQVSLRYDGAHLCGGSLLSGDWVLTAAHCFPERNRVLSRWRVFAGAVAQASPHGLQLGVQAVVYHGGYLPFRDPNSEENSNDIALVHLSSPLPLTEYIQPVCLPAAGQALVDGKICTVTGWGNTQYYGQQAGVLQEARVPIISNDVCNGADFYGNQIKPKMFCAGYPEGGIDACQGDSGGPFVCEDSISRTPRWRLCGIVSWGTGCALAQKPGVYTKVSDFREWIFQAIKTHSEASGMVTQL

Sequence of plasma kallikrein (P03952 20-638, species assumed): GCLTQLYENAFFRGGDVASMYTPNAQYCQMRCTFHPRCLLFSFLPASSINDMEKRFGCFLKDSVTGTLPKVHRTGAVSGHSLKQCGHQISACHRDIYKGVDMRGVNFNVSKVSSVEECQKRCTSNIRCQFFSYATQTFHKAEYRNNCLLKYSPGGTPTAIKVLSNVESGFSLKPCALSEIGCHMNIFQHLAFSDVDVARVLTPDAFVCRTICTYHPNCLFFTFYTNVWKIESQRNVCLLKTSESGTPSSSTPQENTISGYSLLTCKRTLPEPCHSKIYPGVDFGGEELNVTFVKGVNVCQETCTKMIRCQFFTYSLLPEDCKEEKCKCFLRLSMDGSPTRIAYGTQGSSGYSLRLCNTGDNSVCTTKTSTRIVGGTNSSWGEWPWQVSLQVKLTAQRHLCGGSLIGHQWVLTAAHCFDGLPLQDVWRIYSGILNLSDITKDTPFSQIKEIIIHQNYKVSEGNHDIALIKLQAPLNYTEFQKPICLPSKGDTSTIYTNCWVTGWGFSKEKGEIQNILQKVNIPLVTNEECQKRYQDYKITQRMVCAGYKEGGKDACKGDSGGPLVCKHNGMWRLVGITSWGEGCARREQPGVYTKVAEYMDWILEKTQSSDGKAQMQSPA

What is called IC50 is the concentration that gives 50% inhibition. Regarding `CN(C)C(=O)COC(=O)Cc1ccc(OC(=O)c2ccc(NC(=N)N)cc2)cc1.CS(=O)(=O)O` [FOY-305], the IC50 in data set [1] is 1500 nM. For the same compound, for the setting “intraperitoneal injection, reference (5)”, the “effective dose by intraperitoneal injection in mice” value was 20 mg/kg. Under “oral, in food”, the “effective dose orally in mice” value is reported as 0.1 % of the food.
Turning to `CC(C)(Sc1cc(C(C)(C)C)c(O)c(C(C)(C)C)c1)Sc1cc(C(C)(C)C)c(O)c(C(C)(C)C)c1` [Probucol, probucol], in data set [2], the inhibition of hepsin result is recorded as “inhibits hepsin”.
